From US20240108740A1, “THERAPEUTIC COMPOSITIONS INCLUDING SPN10 AND USES THEREOF” (Stealth BioTherapeutics Inc., priority 2022, published 2024)
Residues, ends and D or L forms follow the SMILES beside them.

Columns and labels:
[1] = test system: neonatal cardiomyocytes; assay: Example 57: Ang II-induced mitochondrial ROS (Mitosox, flow cytometry); assay type: cell-based, mouse; details: Angiotensin II 1 μM, 3 hours
Experimental: Ventricles from mouse neonates younger than 72 hours will be dissected, minced, and enzymatically digested with Blendzyme 4 (45 mg/mL, Roche). After enzymatic digestion, cardiomyocytes will be enriched using differential pre-plating for 2 hours, and seeded on fibronectin-coated culture dishes for 24 hours in DMEM (Gibco) with 20% Fetal Bovine Serum (Sigma) and 25 μM Arabinosylcytosine (Sigma). Cardiomyocytes will be stimulated with Angiotensin II (1 μM) for 3 hours in serum-free DMEM containing 0.5% insulin transferrin-selenium (Sigma), 2 mM glutamine, and 1 mg/mL BSA. […] Samples will be analyzed using excitation/emission of 488/625 nm by flow cytometry. Flow data will be analyzed using FCS Express (De Novo Software, Los Angeles, CA, U.S.A.), and presented as histogram distributions of Mitosox fluorescence intensity.

[2] = test system: Sprague-Dawley rats; assay: Example 32: mitochondrial dysfunction in rats fed a high-fat diet; details: rat, in vivo
Experimental: Animals and reagents. Thirty male Sprague-Dawley rats will be obtained from Charles River Laboratory (Wilmington, MA) and housed in a temperature (22° C.) and light controlled room with free access to food and water. Twenty of the animals will be maintained on a high (60%) fat diet (Research Dyets, Bethlehem, PA). Skeletal muscle will be obtained from anesthetized animals (100 mg/kg i.p. ketamine-xylazine). After surgery, animals will be sacrificed by cervical dislocation while anesthetized. Amplex Red Ultra reagent will be obtained from Molecular Probes (Eugene, OR). Stigmatellin and horseradish peroxidase (HRP) will be obtained from Fluka Biochemika (Buchs, Switzerland). All other chemicals will be purchased from Sigma-Aldrich (St. Louis, MO). […]
Mitochondrial respiration and H2O2 production measurements. […] Mitochondrial H2O2 production will be measured at 30° C. during state 4 respiration in buffer Z (10 μg/mL oligomycin) by continuously monitoring oxidation of Amplex Red using a Spex Fluoromax 3 (Jobin Yvon, Ltd.) spectrofluorometer with temperature control and magnetic stirring at >1000 rpm. […] After baseline fluorescence (reactants only) is established, the reaction will be initiated by addition of a permeabilized fiber bundle to 300 μL of buffer Z containing 5 μM Amplex Red and 0.5 U/mL HRP, with succinate at […]. […]

[3] = test system: male C57BL mice; assay: Example 46: burn-induced liver apoptosis; assay type: in vivo, mouse
Experimental: Six-to-eight week old male C57BL mice will be subjected to 30% total body surface (TBSA) burn injury and subsequently injected daily with saline vehicle; peptide conjugates (5 mg/kg body weight); aromatic-cationic peptides (an equivalent molar dose of aromatic-cationic peptide based on the concentration of the aromatic-cationic peptide administered in the peptide conjugate treatment group); SPN10(s) (an equivalent molar dose of SPN10 based on the concentration of SPN10 administered in the peptide conjugate treatment group); or SPN10(s) in combination with aromatic-cationic peptides (e.g., an equivalent molar dose of SPN10 based on the concentration of SPN10 administered in the peptide conjugate treatment group and an equivalent molar dose of aromatic-cationic peptide based on the concentration of aromatic-cationic peptide administered in the peptide conjugate treatment group). A weight- and time-matched sham-burn group exposed to lukewarm (˜37° C.) will serve as controls. Liver tissues will be collected 1, 3, and 7 days after burn injury treatment and analyzed for apoptosis (TUNEL), activated caspase levels (Western blot), and caspase activity (enzymatic assay).

SMILES: N=C(N)NCCC[C@H](NC(=O)[C@@H](N)Cc1c[nH]c2ccccc12)C(=O)N[C@@H](Cc1c[nH]c2ccccc12)C(=O)N[C@@H](CCCCN)C(N)=O [SPN10, H-L-Trp-L-Arg-L-Trp-L-Lys-NH2] (H-WRWK-NH2)
- Ang II-induced Mitosox fluorescence (mitochondrial ROS) [1]: reduce Ang II-induced fluorescence to the level similar to that of saline-treated control cardiomyocytes
- mitochondrial dysfunction under a high-fat diet [2]: reduce mitochondrial dysfunction
- rate of apoptosis in the liver after burn (TUNEL) ([3]; 30% TBSA burn, days 1, 3, 7): attenuate or prevent this effect
- protein oxidation following burn injury ([3]; compared to burn control subjects): decrease in protein oxidation
- caspase-3 activation (Western blot) ([3]; days 3 and 7 post-burn): attenuate or suppress caspase-3 activation
- caspase activity (enzymatic assay) ([3]; post-burn day 7): reduce caspase activity to a level not statistically different from that of sham control group
